In ChEMBL document CHEMBL4049405, “Investigation on cellular uptake and pharmacodynamics of DOCK2-inhibitory peptides conjugated with cell-penetrating peptides” (Bioorg Med Chem, 2017):
Positions of bridges follow the written chain, without caps; N, C: chain ends. Non-standard residues stand in square brackets, D forms with d. Residues, ends and D or L forms follow the SMILES beside them. *: point of attachment. X1 = O=C(OCCCS*)Oc1ccc2nc(C3=N[C@@H](C(=O)O)CS3)sc2c1; X2 = CC(=O)[C@H]1CSC(c2nc3ccc(OC(=O)OCCCS*)cc3s2)=N1; Mpa = O=C(O)CCS

Experiments:
in vitro [1] = settings: human, HEK293T cells
Description: Cytotoxicity against HEK293T cells assessed as cell viability at 6.3 uM by CellTiter-Glo assay relative to control

[2] = Drug uptake in HEK293T cells expressing luciferase reporter gene at 50 uM measured every 3 mins for 60 mins by luminescence assay relative to 50 uM luciferin; type: ADME, cell-based; settings: human, hek-293t, 1 h
in vitro [3] = settings: human, HEK293T cells; remark: listed apart in the source
Description: Cytotoxicity against HEK293T cells assessed as cell viability at 25 uM by CellTiter-Glo assay relative to control

[4] = Cytotoxicity against HEK293T cells assessed as cell viability at 50 uM by CellTiter-Glo assay relative to control; settings: human
in vitro [5] = settings: human, HEK293T cells; remark: listed apart in the source
Description: Cytotoxicity against HEK293T cells assessed as cell viability at 12.5 uM by CellTiter-Glo assay relative to control

in vitro [6] = settings: human, HEK293T cells; remark: listed apart in the source
Description: Cytotoxicity against HEK293T cells assessed as cell viability at 5.6 uM by CellTiter-Glo assay relative to control

in vitro [7] = settings: human, HEK293T cells; remark: listed apart in the source
Description: Cytotoxicity against HEK293T cells assessed as cell viability at 1.9 uM by CellTiter-Glo assay relative to control

in vitro [8] = settings: human, HEK293T cells; remark: listed apart in the source
Description: Cytotoxicity against HEK293T cells assessed as cell viability at 16.7 uM by CellTiter-Glo assay relative to control

Structure (SMILES)	viability at 6.3 µM (in vitro [1])	fold change (FC) [2]	viability at 25 µM (in vitro [3])	viability at 50 µM [4]	viability at 12.5 µM (in vitro [5])	viability at 5.6 µM (in vitro [6])	viability at 1.9 µM (in vitro [7])	viability at 16.7 µM (in vitro [8])
CC(=O)N[C@@H](CSSCCCOC(=O)Oc1ccc2nc(C3=N[C@@H](C(=O)O)CS3)sc2c1)C(=O)N[C@H]1CSSC[C@@H](C(=O)N[C@@H](CCCNC(=N)N)C(=O)N[C@@H](CCCNC(=N)N)C(=O)N[C@@H](CCCNC(=N)N)C(=O)N[C@@H](CCCNC(=N)N)C(=O)N[C@@H](CCCNC(=N)N)C(=O)N[C@@H](CCCNC(=N)N)C(=O)N[C@@H](CCCNC(=N)N)C(=O)N[C@@H](CCCNC(=N)N)C(N)=O)NC(=O)[C@H](Cc2c[nH]c3ccccc23)NC(=O)[C@@H]2CCCN2C(=O)[C@H](Cc2ccc(O)cc2)NC(=O)CNC(=O)[C@H](Cc2cnc[nH]2)NC(=O)[C@H](Cc2ccc(O)cc2)NC(=O)[C@H](CCCCN)NC(=O)[C@H](C)NC(=O)[C@H](C(C)C)NC1=O (Ac-C(X1)CVAKYHGYPWCRRRRRRRR-NH2; disulfide 2-12)	108%	61	99.7%	71.7%	104%	–	–	–
CC(=O)N[C@@H](CSSCCCOC(=O)Oc1ccc2nc(C3=N[C@@H](C(C)=O)CS3)sc2c1)C(=O)N[C@H]1CSSC[C@@H](C(=O)N[C@@H](CCCNC(=N)N)C(=O)N[C@@H](CCCNC(=N)N)C(=O)N[C@@H](CCCNC(=N)N)C(N)=O)NC(=O)[C@H](Cc2c[nH]c3ccccc23)NC(=O)[C@@H]2CCCN2C(=O)[C@H](Cc2ccc(O)cc2)NC(=O)CNC(=O)[C@H](Cc2cnc[nH]2)NC(=O)[C@H](Cc2ccc(O)cc2)NC(=O)[C@H](CCCCN)NC(=O)[C@H](C)NC(=O)[C@H](C(C)C)NC1=O (Ac-C(X2)CVAKYHGYPWCRRR-NH2; disulfide 2-12)	105%	22.8	115%	126%	112%	–	–	–
CC(C)C[C@H](NC(=O)[C@H](CO)NC(=O)CNC(=O)CCSSCCCOC(=O)Oc1ccc2nc(C3=N[C@@H](C(=O)O)CS3)sc2c1)C(=O)N[C@@H](CCCCN)C(=O)N[C@H](C(=O)N[C@@H](CCCNC(=N)N)C(=O)N[C@H](C(=O)N[C@@H](CC(C)C)C(=O)N[C@@H](CCCCN)C(=O)N[C@@H](CCCNC(=N)N)C(N)=O)C(C)C)[C@@H](C)O ([Mpa](X1)GSLKTRVLKR-NH2)	–	11.2	–	87%	–	100%	101%	93.1%
CC(C)C[C@H](NC(=O)[C@H](CCCCN)NC(=O)CCSSCCCOC(=O)Oc1ccc2nc(C3=N[C@@H](C(=O)O)CS3)sc2c1)C(=O)N[C@@H](Cc1ccccc1)C(=O)N[C@@H](CC(N)=O)C(=O)N[C@@H](CCCCN)C(=O)N[C@@H](CCC(N)=O)C(=O)N[C@@H](CCC(=O)O)C(=O)N[C@@H](Cc1c[nH]c2ccccc12)C(=O)N[C@H](C(=O)N[C@@H](CC(N)=O)C(N)=O)[C@@H](C)O ([Mpa](X1)KLFNKQEWTN-NH2)	–	9.7	–	99.4%	–	98.8%	93%	97.6%
CC(C)C[C@H](NC(=O)[C@H](CCCCN)NC(=O)[C@H](Cc1c[nH]c2ccccc12)NC(=O)[C@H](CCCNC(=N)N)NC(=O)[C@H](CCCCN)NC(=O)CCSSCCCOC(=O)Oc1ccc2nc(C3=N[C@@H](C(=O)O)CS3)sc2c1)C(=O)N[C@@H](Cc1ccccc1)C(=O)N[C@@H](CC(N)=O)C(=O)N[C@@H](CCCCN)C(=O)N[C@@H](CCC(N)=O)C(=O)N[C@@H](CCC(=O)O)C(N)=O ([Mpa](X1)KRWKLFNKQE-NH2)	–	13.6	–	93.8%	–	106%	95.8%	93.7%
CC(C)C[C@H](NC(=O)[C@H](CCCCN)NC(=O)[C@H](Cc1c[nH]c2ccccc12)NC(=O)[C@H](CCCNC(=N)N)NC(=O)[C@H](CCCCN)NC(=O)[C@H](CC(C)C)NC(=O)[C@@H](NC(=O)[C@H](CCCNC(=N)N)NC(=O)[C@@H](NC(=O)[C@H](CCCCN)NC(=O)CCSSCCCOC(=O)Oc1ccc2nc(C3=N[C@@H](C(=O)O)CS3)sc2c1)[C@@H](C)O)C(C)C)C(N)=O ([Mpa](X1)KTRVLKRWKL-NH2)	–	30.7	–	80.1%	–	85.3%	77.7%	80.5%
CC(C)C[C@H](NC(=O)CCSSCCCOC(=O)Oc1ccc2nc(C3=N[C@@H](C(=O)O)CS3)sc2c1)C(=O)N[C@@H](CCCCN)C(=O)N[C@@H](CCCNC(=N)N)C(=O)N[C@@H](Cc1c[nH]c2ccccc12)C(=O)N[C@@H](CCCCN)C(=O)N[C@@H](CC(C)C)C(=O)N[C@@H](Cc1ccccc1)C(=O)N[C@@H](CC(N)=O)C(=O)N[C@@H](CCCCN)C(=O)N[C@@H](CCC(N)=O)C(N)=O ([Mpa](X1)LKRWKLFNKQ-NH2)	–	34.5	–	94%	–	93.7%	94.2%	88.1%
CC(C)C[C@H](NC(=O)CCSSCCCOC(=O)Oc1ccc2nc(C3=N[C@@H](C(=O)O)CS3)sc2c1)C(=O)N[C@@H](CCCCN)C(=O)N[C@H](C(=O)N[C@@H](CCCNC(=N)N)C(=O)N[C@H](C(=O)N[C@@H](CC(C)C)C(=O)N[C@@H](CCCCN)C(=O)N[C@@H](CCCNC(=N)N)C(=O)N[C@@H](Cc1c[nH]c2ccccc12)C(=O)N[C@@H](CCCCN)C(N)=O)C(C)C)[C@@H](C)O ([Mpa](X1)LKTRVLKRWK-NH2)	–	30.1	–	87.8%	–	80%	88.5%	79.1%
CC(C)C[C@H](NC(=O)[C@H](CCCCN)NC(=O)[C@H](Cc1c[nH]c2ccccc12)NC(=O)[C@H](CCCNC(=N)N)NC(=O)[C@H](CCCCN)NC(=O)[C@H](CC(C)C)NC(=O)[C@@H](NC(=O)[C@H](CCCNC(=N)N)NC(=O)CCSSCCCOC(=O)Oc1ccc2nc(C3=N[C@@H](C(=O)O)CS3)sc2c1)C(C)C)C(=O)N[C@@H](Cc1ccccc1)C(=O)N[C@@H](CC(N)=O)C(N)=O ([Mpa](X1)RVLKRWKLFN-NH2)	–	198.2	–	86%	–	94.4%	93.5%	92.5%
CC(C)C[C@H](NC(=O)[C@H](CCCCN)NC(=O)[C@H](Cc1c[nH]c2ccccc12)NC(=O)[C@H](CCCNC(=N)N)NC(=O)CCSSCCCOC(=O)Oc1ccc2nc(C3=N[C@@H](C(=O)O)CS3)sc2c1)C(=O)N[C@@H](Cc1ccccc1)C(=O)N[C@@H](CC(N)=O)C(=O)N[C@@H](CCCCN)C(=O)N[C@@H](CCC(N)=O)C(=O)N[C@@H](CCC(=O)O)C(=O)N[C@@H](Cc1c[nH]c2ccccc12)C(N)=O ([Mpa](X1)RWKLFNKQEW-NH2)	–	18.2	–	102%	–	93.6%	92.3%	92.8%
CC(C)C[C@H](NC(=O)[C@H](CO)NC(=O)CCSSCCCOC(=O)Oc1ccc2nc(C3=N[C@@H](C(=O)O)CS3)sc2c1)C(=O)N[C@@H](CCCCN)C(=O)N[C@H](C(=O)N[C@@H](CCCNC(=N)N)C(=O)N[C@H](C(=O)N[C@@H](CC(C)C)C(=O)N[C@@H](CCCCN)C(=O)N[C@@H](CCCNC(=N)N)C(=O)N[C@@H](Cc1c[nH]c2ccccc12)C(N)=O)C(C)C)[C@@H](C)O ([Mpa](X1)SLKTRVLKRW-NH2)	–	16.7	–	83.8%	–	89.6%	84%	84.3%
CC(C)C[C@H](NC(=O)[C@H](CCCCN)NC(=O)[C@H](Cc1c[nH]c2ccccc12)NC(=O)[C@H](CCCNC(=N)N)NC(=O)[C@H](CCCCN)NC(=O)[C@H](CC(C)C)NC(=O)[C@@H](NC(=O)[C@H](CCCNC(=N)N)NC(=O)[C@@H](NC(=O)CCSSCCCOC(=O)Oc1ccc2nc(C3=N[C@@H](C(=O)O)CS3)sc2c1)[C@@H](C)O)C(C)C)C(=O)N[C@@H](Cc1ccccc1)C(N)=O ([Mpa](X1)TRVLKRWKLF-NH2)	–	216.3	–	88.5%	–	92.4%	94.3%	97.3%
CC(C)C[C@H](NC(=O)[C@H](CCCCN)NC(=O)[C@H](Cc1c[nH]c2ccccc12)NC(=O)[C@H](CCCNC(=N)N)NC(=O)[C@H](CCCCN)NC(=O)[C@H](CC(C)C)NC(=O)[C@@H](NC(=O)CCSSCCCOC(=O)Oc1ccc2nc(C3=N[C@@H](C(=O)O)CS3)sc2c1)C(C)C)C(=O)N[C@@H](Cc1ccccc1)C(=O)N[C@@H](CC(N)=O)C(=O)N[C@@H](CCCCN)C(N)=O ([Mpa](X1)VLKRWKLFNK-NH2)	–	30.3	–	95.9%	–	98.5%	88.6%	99.6%
CC(C)C[C@H](NC(=O)[C@H](CCCCN)NC(=O)[C@H](Cc1c[nH]c2ccccc12)NC(=O)CCSSCCCOC(=O)Oc1ccc2nc(C3=N[C@@H](C(=O)O)CS3)sc2c1)C(=O)N[C@@H](Cc1ccccc1)C(=O)N[C@@H](CC(N)=O)C(=O)N[C@@H](CCCCN)C(=O)N[C@@H](CCC(N)=O)C(=O)N[C@@H](CCC(=O)O)C(=O)N[C@@H](Cc1c[nH]c2ccccc12)C(=O)N[C@H](C(N)=O)[C@@H](C)O ([Mpa](X1)WKLFNKQEWT-NH2)	–	14.7	–	102%	–	99.6%	100%	104%
